In US11285135B2 (AMGEN INC., priority 2016, dated 2022):

Molecular target: GDP-bound protein (aa 1-169), containing both G12C and C118A amino acid substitutions (Homo sapiens, UniProt P01116, C118A/G12C)
Experiment: Coupled Nucleotide Exchange Assay (SOS-mediated nucleotide exchange, AlphaScreen)
Format: biochemical
Settings: 2 hours compound pre-incubation
Procedure: Coupled Nucleotide Exchange Assay: Purified GDP-bound […] protein (aa 1-169), containing both G12C and C118A amino acid substitutions and an N-terminal His-tag, was pre-incubated with a compound dose-response titration for 2 hours in assay buffer (25 mM HEPES pH 7.4, 10 mM MgCl2, and 0.01% Triton X-100). Following compound pre-incubation, purified SOS protein (aa 564-1049) and GTP (Roche 10106399001) were added to the assay wells and incubated for an additional hour. […] The assay plates were then read on a PerkinElmer EnVision Multilabel Reader, using AlphaScreen® technology, and data were analyzed using a 4-parameter logistic model to calculate IC50 values.

Sequence of GDP-bound protein (aa 1-169), containing both G12C and C118A amino acid substitutions (P01116 1-169 isoform P01116-2 G12C/C118A): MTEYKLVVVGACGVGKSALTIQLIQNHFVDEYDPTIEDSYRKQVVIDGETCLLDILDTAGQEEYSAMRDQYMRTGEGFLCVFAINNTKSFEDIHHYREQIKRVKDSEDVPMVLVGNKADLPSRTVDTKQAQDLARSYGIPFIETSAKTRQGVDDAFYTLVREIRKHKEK

SMILES	Coupled exchange IC50 [µM]
C=CC(=O)N[C@@H]1CN(c2snc3c(F)c(-c4cc(O)cc5ccccc45)c(Cl)cc23)[C@@H]1C (racemic) [Example 1-9, N-(1-(5-chloro-7-fluoro-6-(3-hydroxy-1-naphthalenyl)-2,1-benzothiazol-3-yl)-2-methyl-3-azetidinyl)-2-propenamide]	5.92
C=CC(=O)N1CCN(c2snc3c(F)c(-c4cc(O)cc5ccccc45)c(Cl)cc23)CC1C(N)=O (racemic) [Example 1-12, 4-(5-chloro-7-fluoro-6-(3-hydroxy-1-naphthalenyl)-2,1-benzothiazol-3-yl)-1-(2-propenoyl)-2-piperazinecarboxamide]	11.8
C=CC(=O)N1CCN(c2snc3nc(-c4c(F)cccc4OC)c(Cl)cc23)C(C)C1 (racemic) [Example 2-2, 1-(4-(5-chloro-6-(2-fluoro-6-methoxyphenyl)[1,2]thiazolo[3,4-b]pyridin-3-yl)-3-methyl-1-piperazinyl)-2-propen-1-one]	12.7
C=CC(=O)N1CCN(c2snc3nc(-c4c(C)ccc5[nH]ncc45)c(Cl)cc23)C(C)C1 (single isomer, unassigned) [Example 2-6-1, 1-((3S)-4-(5-chloro-6-(5-methyl-1H-indazol-4-yl)[1,2]thiazolo[3,4-b]pyridin-3-yl)-3-methyl-1-piperazinyl)-2-propen-1-one or 1-((3R)-4-(5-chloro-6-(5-methyl-1H-indazol-4-yl)[1,2]thiazolo[3,4-b]pyridin-3-yl)-3-methyl-1-piperazinyl)-2-propen-1-one]	13.0
C=CC(=O)N1CCN(c2snc3cc(-c4c(F)cccc4OC)c(Cl)cc23)CC1 [Example 1-5, 1-(4-(5-chloro-6-(2-fluoro-6-methoxyphenyl)-2,1-benzothiazol-3-yl)-1-piperazinyl)-2-propen-1-one]	6.66
C=CC(=O)N1CCN(c2snc3c(F)c(-c4c(OC)ccc5ccccc45)c(Cl)cc23)CC1 [Example 1-13, 1-(4-(5-chloro-7-fluoro-6-(2-methoxy-1-naphthalenyl)-2,1-benzothiazol-3-yl)-1-piperazinyl)-2-propen-1-one]	>10
C=CC(=O)N1[C@@H]2CC[C@H]1CN(c1snc3c(F)c(-c4cc(O)cc5ccccc45)c(Cl)cc13)C2 [Example 1-17, 1-((1R,5S)-3-(5-chloro-7-fluoro-6-(3-hydroxy-1-naphthalenyl)-2,1-benzothiazol-3-yl)-3,8-diazabicyclo[3.2.1]octan-8-yl)-2-propen-1-one]	63.5
C=CC(=O)N[C@@H]1CCN(c2snc3c(F)c(-c4cc(O)cc5ccccc45)c(Cl)cc23)C1 [Example 1-22, N-((3R)-1-(5-chloro-7-fluoro-6-(3-hydroxy-1-naphthalenyl)-2,1-benzothiazol-3-yl)-3-pyrrolidinyl)-2-propenamide]	>250
C=CC(=O)N[C@@H]1CCCN(c2snc3c(F)c(-c4cc(O)cc5ccccc45)c(Cl)cc23)C1 [Example 1-23, N-((3R)-1-(5-chloro-7-fluoro-6-(3-hydroxy-1-naphthalenyl)-2,1-benzothiazol-3-yl)-3-piperidinyl)-2-propenamide]	>250

The next lines start with the values.

Coupled exchange IC50 [µM]	SMILES
8.17	C=CC(=O)N1CCN(c2nnc(C(C)c3ccccc3)c3cc(-c4c(O)cccc4F)c(Cl)cc23)CC1 (racemic) [Example 28, 1-(4-(7-chloro-6-(2-fluoro-6-hydroxyphenyl)-4-((1R)-1-phenylethyl)-1-phthalazinyl)-1-piperazinyl)-2-propen-1-one and 1-(4-(7-chloro-6-(2-fluoro-6-hydroxyphenyl)-4-((1S)-1-phenylethyl)-1-phthalazinyl)-1-piperazinyl)-2-propen-1-one]
28.6	C=CC(=O)N1CCN(c2nnc(OC)c3cc(-c4c(O)cccc4F)c(Cl)cc23)CC1 (single isomer, unassigned) [Example 32, 2-(1-(4-Acryloyl-1-piperazinyl)-7-chloro-4-methoxy-6-phthalazinyl)-3-fluorophenol]
103	C=CC(=O)N1CCN(c2nnc(OC)c3cc(Cl)c(-c4c(O)cccc4F)cc23)CC1 (single isomer, unassigned) [Example 33, 2-(4-(4-acryloyl-1-piperazinyl)-7-chloro-1-methoxy-6-phthalazinyl)-3-fluorophenol]
>250	C=CC(=O)N1CCN(c2snc3c(F)c(-c4cccc5ccc(=O)[nH]c45)c(Cl)cc23)CC1 [Example 3-2, 8-(5-chloro-7-fluoro-3-(4-(2-propenoyl)-1-piperazinyl)-2,1-benzothiazol-6-yl)-2(1H)-quinolinone]
11.3	C=CC(=O)N1CCN(c2snc3c(F)c(-c4cccc5ccncc45)c(Cl)cc23)CC1 [Example 3-3, 1-(4-(5-chloro-7-fluoro-6-(8-isoquinolinyl)-2,1-benzothiazol-3-yl)-1-piperazinyl)-2-propen-1-one]
>250	C=CC(=O)N1CCN(c2snc3c(F)c(-c4cccc5[nH]c(=O)ccc45)c(Cl)cc23)CC1 [Example 3-4, 5-(5-chloro-7-fluoro-3-(4-(2-propenoyl)-1-piperazinyl)-2,1-benzothiazol-6-yl)-2(1H)-quinolinone]
6.98	C=CC(=O)N1CCN(c2snc3c(F)c(-c4ccc(F)cc4F)c(Cl)cc23)CC1 [Example 3-7, 1-(4-(5-chloro-6-(2,4-difluorophenyl)-7-fluoro-2,1-benzothiazol-3-yl)-1-piperazinyl)-2-propen-1-one]
6.49	C=CC(=O)N1CCN(c2snc3c(F)c(-c4cc(NC(C)=O)ccc4C)c(Cl)cc23)CC1 [Example 3-13, N-(3-(5-chloro-7-fluoro-3-(4-(2-propenoyl)-1-piperazinyl)-2,1-benzothiazol-6-yl)-4-methylphenyl)acetamide]
5.64	C=CC(=O)N1CCN(c2snc3c(F)c(-c4cc(N)ccc4F)c(Cl)cc23)CC1 [Example 3-14, 1-(4-(6-(5-amino-2-fluorophenyl)-5-chloro-7-fluoro-2,1-benzothiazol-3-yl)-1-piperazinyl)-2-propen-1-one]
5.48	C=CC(=O)N1CCN(c2snc3c(F)c(-c4cc(O)c(Cl)cc4Cl)c(Cl)cc23)CC1 [Example 3-17, 1-(4-(5-chloro-6-(2,4-dichloro-5-hydroxyphenyl)-7-fluoro-2,1-benzothiazol-3-yl)-1-piperazinyl)-2-propen-1-one]
32.0	C=CC(=O)N1CCN(c2snc3c(F)c(-c4cnccc4C(C)C)c(Cl)cc23)CC1 [Example 3-21, 1-(4-(5-chloro-7-fluoro-6-(4-(2-propanyl)-3-pyridinyl)-2,1-benzothiazol-3-yl)-1-piperazinyl)-2-propen-1-one]
>250	C=CC(=O)N1CCN(c2snc3c(F)c(-c4cc(N)cc(C#N)c4)c(Cl)cc23)CC1 [Example 3-25, 3-amino-5-(5-chloro-7-fluoro-3-(4-(2-propenoyl)-1-piperazmyl)-2,1-benzothiazol-6-yl)benzonitrile]
>250	C=CC(=O)N1CC2(C1)CN(c1snc3c(F)c(Br)c(Cl)cc13)C2 [Example 4-2, 1-(6-(6-bromo-5-chloro-7-fluoro-2,1-benzothiazol-3-yl)-2,6-diazaspiro[3.3]hept-2-yl)-2-propen-1-one]
